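Five compound concentrations were applied to cells in 96-well plates for 48 hours; endpoints were derived by simple linear interpolation of the resulting dose-response curve. Here, GI50 denotes the concentration required for 50% inhibition of growth.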 Active and inactive are the calls of the source. Cut-off read from the data, not from the text of the source: active = GI50 up to about 1.1 µM and inactive = higher.
Legend:
Assay in all cases: DTP human tumour cell line panel, 48 h
NCI-H522 = tested on: NCI-H522
OVCAR-4 = tested on: OVCAR-4
RPMI-8226 = tested on: RPMI-8226
TK-10 = tested on: TK-10
SN12C = tested on: SN12C
HCC 2998 = tested on: HCC 2998
A498 = tested on: A498
SK-MEL-2 = tested on: SK-MEL-2
SR = tested on: SR
CCRF-CEM = tested on: CCRF-CEM
KM12 = tested on: KM12
HOP-62 = tested on: HOP-62
OVCAR-3 = tested on: OVCAR-3
SF-295 = tested on: SF-295
HT-29 = tested on: HT-29
Malme-3M = tested on: Malme-3M
NCI-H23 = tested on: NCI-H23
MOLT-4 = tested on: MOLT-4
ACHN = tested on: ACHN
NCI-H226 = tested on: NCI-H226

Measured: GI50

C=C(CO)C(=O)OC1CC(=C)C2CC(O)C(C)C2C2OC(=O)C(=C)C12 (stereo not given)
inactive: NCI-H522 26.3 µM | OVCAR-4 61.1 µM | RPMI-8226 24.5 µM | TK-10 16.3 µM | SN12C 18.2 µM | HCC 2998 21.7 µM | A498 39.6 µM | SK-MEL-2 16.1 µM | SR 19.3 µM | CCRF-CEM 31.2 µM | KM12 18 µM | HOP-62 19.4 µM | OVCAR-3 16 µM | SF-295 19.4 µM | HT-29 24.7 µM | Malme-3M 21.3 µM | NCI-H23 > 100 µM | MOLT-4 25.2 µM | ACHN 18.4 µM

CN1CCC(C(=O)NNc2ccccc2)CC1
inactive: NCI-H522 3.27 µM | OVCAR-4 13.3 µM | RPMI-8226 24.8 µM | TK-10 18.3 µM | SN12C > 100 µM | HCC 2998 5.22 µM | A498 > 100 µM | SK-MEL-2 9.02 µM | SR 7.43 µM | KM12 3.15 µM | NCI-H226 > 100 µM | HOP-62 14.3 µM | OVCAR-3 16.9 µM | SF-295 2.12 µM | HT-29 7.53 µM | Malme-3M 22.4 µM | NCI-H23 42.4 µM | MOLT-4 1.23 µM | ACHN 2.66 µM

C#CCCCCC#Cc1ccccc1C(=O)OC
inactive: OVCAR-4 58.9 µM | RPMI-8226 13.1 µM | TK-10 > 100 µM | SN12C 35 µM | HCC 2998 > 100 µM | A498 > 100 µM | SK-MEL-2 39.7 µM | SR 2.28 µM | CCRF-CEM 2.91 µM | KM12 58.2 µM | NCI-H226 43.5 µM | HOP-62 > 100 µM | OVCAR-3 32.5 µM | SF-295 37.3 µM | HT-29 30.5 µM | Malme-3M 77.6 µM | NCI-H23 37.4 µM | MOLT-4 12.7 µM | ACHN 64.3 µM

Cc1ccc2c(O)cc(-c3ccc(F)cc3)nc2n1
inactive: NCI-H522 24.9 µM | OVCAR-4 44.5 µM | RPMI-8226 24.9 µM | TK-10 46.6 µM | SN12C 52 µM | HCC 2998 44 µM | A498 25.1 µM | SK-MEL-2 45.7 µM | SR 7.4 µM | CCRF-CEM 32.1 µM | KM12 22.4 µM | NCI-H226 37.1 µM | HOP-62 48.8 µM | HT-29 30.1 µM | Malme-3M 32.4 µM | NCI-H23 41.3 µM | MOLT-4 26.8 µM | ACHN 42.6 µM

COc1cc2c(cc1O)CCN(C)[C@H]2Cc1ccc(Oc2c(O)c(OC)cc3c2C[C@H]2c4c(c(OC)c(OC)c(OC)c4-3)CCN2C)cc1 [THALIFABERIDINE]
inactive: NCI-H522 5.55 µM | OVCAR-4 2.3 µM | RPMI-8226 1.51 µM | TK-10 6.11 µM | SN12C 5.35 µM | HCC 2998 3.08 µM | A498 7.41 µM | SK-MEL-2 6.82 µM | SR 1.61 µM | CCRF-CEM 2.92 µM | KM12 4.11 µM | NCI-H226 7.46 µM | HOP-62 6.01 µM | OVCAR-3 5.36 µM | SF-295 5.79 µM | HT-29 2.85 µM | Malme-3M 7.85 µM | NCI-H23 6.41 µM | MOLT-4 3 µM | ACHN 5.71 µM

NCC[Se][Se]CCN
inactive: NCI-H522 10.4 µM | OVCAR-4 11.8 µM | RPMI-8226 12.9 µM | TK-10 13.3 µM | SN12C 6.76 µM | HCC 2998 11.9 µM | A498 9.18 µM | SK-MEL-2 7.57 µM | SR 10.1 µM | CCRF-CEM 5.12 µM | KM12 8.05 µM | NCI-H226 11 µM | HOP-62 8.67 µM | OVCAR-3 13.9 µM | SF-295 3.2 µM | HT-29 10 µM | Malme-3M 11.9 µM | NCI-H23 15 µM | MOLT-4 5.25 µM | ACHN 10 µM
